Measured values reported in ChEMBL document CHEMBL4828744, “Design, synthesis and biological evaluation of pyridinylmethylenepiperidine derivatives as potent 5-HT1F receptor agonists for migraine therapy” (Eur J Med Chem, 2021).
The source made the active and inactive calls. The rule behind the calls is not given here.

Target: T1, 5-hydroxytryptamine receptor 1F (Homo sapiens) (UniProt P30939)
T1 sequence (whole entry): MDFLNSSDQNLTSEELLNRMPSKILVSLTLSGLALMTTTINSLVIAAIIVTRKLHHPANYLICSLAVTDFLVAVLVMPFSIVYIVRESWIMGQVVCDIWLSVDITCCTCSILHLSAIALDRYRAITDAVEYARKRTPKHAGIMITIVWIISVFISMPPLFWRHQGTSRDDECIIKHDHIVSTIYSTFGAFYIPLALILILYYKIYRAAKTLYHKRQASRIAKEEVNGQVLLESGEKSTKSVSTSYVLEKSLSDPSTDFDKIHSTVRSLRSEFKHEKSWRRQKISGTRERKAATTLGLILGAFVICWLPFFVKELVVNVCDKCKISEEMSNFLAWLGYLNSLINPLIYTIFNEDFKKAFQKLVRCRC
Test: Potency index, ratio of lasmiditan EC50 to test compound EC50 for agonist activity at 5HT1F receptor (unknown origin) expressed in HEK293 cells measured after 60 mins by Fluo-4AM dye based FLIPR assay
Format: functional, cell-based
Conditions: not given

`CN1CCC(=C(F)c2cccc(NC(=O)c3ccc(Cl)cc3F)n2)CC1` and `CN1CCC(=C(F)c2cccc(NC(=O)c3ccc(F)cc3F)n2)CC1` are the same in Ratio EC50: 3 for the first, 3 for the second.

`CN1CCC(=C(F)c2cccc(NC(=O)c3ccc(Cl)cc3)n2)CC1` and `CN1CCC(=C(F)c2cccc(NC(=O)c3ccc(F)cc3)n2)CC1` are the same in Ratio EC50: 3 for the first, 3 for the second.

Tested on: not listed separately
Test: Volume of distribution at steady state in Sprague-Dawley rat at 1 mg/kg, iv measured for 24 hrs by LC-MS/MS analysis
Format: ADME, organism-based
Conditions: in vivo, read-out: Vdss

`CN1CCC(=C(F)c2cccc(NC(=O)c3ccc(Cl)cc3F)n2)CC1` and `CN1CCC(=C(F)c2cccc(NC(=O)c3ccc(F)cc3F)n2)CC1` are within 1.5-fold of each other in Vd: 20.1 L/kg for the first, 17.7 L/kg for the second.

First: CN1CCC(=C(F)c2cccc(NC(=O)c3ccc(F)cn3)n2)CC1
Second: CN1CCC(=C(F)c2cccc(NC(=O)c3ccc(F)cc3)n2)CC1
The Vd of the first is 1.6-fold lower: 11 L/kg for the first, 17.3 L/kg for the second.

Compared with `CN1CCC(=C(F)c2cccc(NC(=O)c3ccc(Cl)cc3)n2)CC1`, `CN1CCC(C(=O)c2cccc(NC(=O)c3c(F)cc(F)cc3F)n2)CC1` [LASMIDITAN] is 1.6-fold higher in Vd: 20.3 L/kg for the first, 32.2 L/kg for the second.

Tested on: not listed separately
Test: AUC(0 to t) in Sprague-Dawley rat at 5 mg/kg, ig measured for 24 hrs by LC-MS/MS analysis
Format: ADME, organism-based
Design: time 24 hrs, dose 5 mg/kg
Conditions: in vivo, po

Compared with `CN1CCC(=C(F)c2cccc(NC(=O)c3ccc(Cl)cc3F)n2)CC1`, `CN1CCC(=C(F)c2cccc(NC(=O)c3ccc(F)cc3F)n2)CC1` is 2.4-fold lower in AUC(0-t) at 24 h: 105 ng·h/mL for the first, 44.6 ng·h/mL for the second.

`CN1CCC(=C(F)c2cccc(NC(=O)c3ccc(F)cn3)n2)CC1` and `CN1CCC(=C(F)c2cccc(NC(=O)c3ccc(F)cc3)n2)CC1` are within 1.5-fold of each other in AUC(0-t) at 24 h: 121 ng·h/mL for the first, 157 ng·h/mL for the second.

Compared with `CN1CCC(=C(F)c2cccc(NC(=O)c3ccc(Cl)cc3)n2)CC1`, `CN1CCC(C(=O)c2cccc(NC(=O)c3c(F)cc(F)cc3F)n2)CC1` [LASMIDITAN] is 2.6-fold higher in AUC(0-t) at 24 h: 151 ng·h/mL for the first, 386 ng·h/mL for the second.

Target: T2, 5-hydroxytryptamine receptor 1F (Homo sapiens, UniProt P30939)
T2 sequence (P30939 whole entry): T1 sequence (whole entry)
Test: Agonist activity at 5HT1F receptor (unknown origin) expressed in HEK293 cells measured after 60 mins by Fluo-4AM dye based FLIPR assay
Format: functional, cell-based
Conditions: read-out: IC50 (the source's name)

First: CN1CCC(=C(F)c2cccc(NC(=O)c3ccc(Cl)cc3F)n2)CC1
Second: CN1CCC(=C(F)c2cccc(NC(=O)c3ccc(F)cc3F)n2)CC1
The EC50 of the first is 5-fold higher: 23.4 nM for the first, 4.67 nM for the second.

First: CN1CCC(=C(F)c2cccc(NC(=O)c3ccc(F)cn3)n2)CC1
Second: CN1CCC(=C(F)c2cccc(NC(=O)c3ccc(Cl)cn3)n2)CC1
The EC50 of the first is 6.6-fold lower: 24.3 nM for the first, 161 nM for the second. The first is the more potent here.

Going from `O=C(Nc1cccc(C(F)=C2CCN(C(F)F)CC2)n1)c1c(F)cc(F)cc1F` to `O=C(Nc1cccc(C(F)=C2CCN(C(F)(F)F)CC2)n1)c1c(F)cc(F)cc1F`, the EC50 rises from 813 nM to > 10000 nM.

First: CN1CCC(=C(F)c2cccc(NC(=O)c3ccc(Cl)cc3)n2)CC1
Second: CN1CCC(=C(F)c2cccc(NC(=O)c3ccc(F)cc3)n2)CC1
The EC50 of the first is 4.6-fold higher: 29.3 nM for the first, 6.36 nM for the second. The second is the more potent here.

Compared with `CCN1CCC(=C(F)c2cccc(NC(=O)c3c(F)cc(F)cc3F)n2)CC1`, `O=C(Nc1cccc(C(F)=C2CCN(C3CC3)CC2)n1)c1c(F)cc(F)cc1F` is 3.2-fold higher in EC50: 178 nM for the first, 570 nM for the second.

Tested on: not listed separately
Test: Clearance in Sprague-Dawley rat at 1 mg/kg, iv measured for 24 hrs by LC-MS/MS analysis
Format: ADME, organism-based
Conditions: in vivo

`CN1CCC(=C(F)c2cccc(NC(=O)c3ccc(Cl)cc3F)n2)CC1` and `CN1CCC(=C(F)c2cccc(NC(=O)c3ccc(F)cc3F)n2)CC1` are within 1.5-fold of each other in clearance: 178 mL/min/kg for the first, 229 mL/min/kg for the second.

`CN1CCC(=C(F)c2cccc(NC(=O)c3ccc(F)cn3)n2)CC1` and `CN1CCC(=C(F)c2cccc(NC(=O)c3ccc(F)cc3)n2)CC1` are within 1.5-fold of each other in clearance: 159 mL/min/kg for the first, 156 mL/min/kg for the second.

`CN1CCC(=C(F)c2cccc(NC(=O)c3ccc(Cl)cc3)n2)CC1` and `CN1CCC(C(=O)c2cccc(NC(=O)c3c(F)cc(F)cc3F)n2)CC1` [LASMIDITAN] are within 1.5-fold of each other in clearance: 180 mL/min/kg for the first, 127 mL/min/kg for the second.

Tested on: not listed separately
Test: Toxicity in NewZealand rabbit Saphenous vein rings assessed as induction of vasoconstriction at 0.01 to 100 uM
Format: tissue-based, Oryctolagus cuniculus
Conditions: dose 0.01-100 µM

With `CN1CCC(C(=O)c2cccc(NC(=O)c3c(F)cc(F)cc3F)n2)CC1` [LASMIDITAN] the Activity was “Non-Toxic”.

Tested on: not listed separately
Test: Half life in Sprague-Dawley rat at 5 mg/kg, ig measured for 24 hrs by LC-MS/MS analysis
Format: ADME, organism-based
Conditions: in vivo, po

Going from `CN1CCC(=C(F)c2cccc(NC(=O)c3ccc(Cl)cc3F)n2)CC1` to `CN1CCC(=C(F)c2cccc(NC(=O)c3ccc(F)cc3F)n2)CC1`, the half-life falls from 1.68 h to 0.824 h (2-fold).

`CN1CCC(=C(F)c2cccc(NC(=O)c3ccc(F)cn3)n2)CC1` and `CN1CCC(=C(F)c2cccc(NC(=O)c3ccc(F)cc3)n2)CC1` are within 1.5-fold of each other in half-life: 1.24 h for the first, 1.41 h for the second.

`CN1CCC(=C(F)c2cccc(NC(=O)c3ccc(Cl)cc3)n2)CC1` and `CN1CCC(C(=O)c2cccc(NC(=O)c3c(F)cc(F)cc3F)n2)CC1` [LASMIDITAN] are within 1.5-fold of each other in half-life: 2.41 h for the first, 3.38 h for the second.

Tested on: Rattus norvegicus
Test: Antimigraine activity against electrical stimulation of trigeminal ganglion migraine Wistar rat model assessed as reduction in dural plasma protein extravasation at 0.01 ug/kg, po measured after 45 mins by confocal fluorescence microscopic analysis
Format: functional, organism-based
Conditions: dose 0.01 µg/kg

With `CN1CCC(C(=O)c2cccc(NC(=O)c3c(F)cc(F)cc3F)n2)CC1` [LASMIDITAN] the Activity was “Active”.

Tested on: not listed separately
Test: Bioavailability in Sprague-Dawley rat at 5 mg/kg, ig measured for 24 hrs by LC-MS/MS analysis
Format: ADME, organism-based
Conditions: in vivo, po

Compared with `CN1CCC(=C(F)c2cccc(NC(=O)c3ccc(Cl)cc3F)n2)CC1`, `CN1CCC(=C(F)c2cccc(NC(=O)c3ccc(F)cc3F)n2)CC1` is lower in bioavailability: 26.2% for the first, 12.9% for the second.

Compared with `CN1CCC(=C(F)c2cccc(NC(=O)c3ccc(F)cn3)n2)CC1`, `CN1CCC(=C(F)c2cccc(NC(=O)c3ccc(F)cc3)n2)CC1` is higher in bioavailability: 23.7% for the first, 32.5% for the second.

Going from `CN1CCC(=C(F)c2cccc(NC(=O)c3ccc(Cl)cc3)n2)CC1` to `CN1CCC(C(=O)c2cccc(NC(=O)c3c(F)cc(F)cc3F)n2)CC1` [LASMIDITAN], the bioavailability rises from 39% to 63.2%.

Tested on: not listed separately
Test: Half life in Sprague-Dawley rat at 1 mg/kg, iv measured for 24 hrs by LC-MS/MS analysis
Format: ADME, organism-based
Conditions: in vivo

`CN1CCC(=C(F)c2cccc(NC(=O)c3ccc(Cl)cc3F)n2)CC1` and `CN1CCC(=C(F)c2cccc(NC(=O)c3ccc(F)cc3F)n2)CC1` are within 1.5-fold of each other in half-life: 1.42 h for the first, 1.05 h for the second.

`CN1CCC(=C(F)c2cccc(NC(=O)c3ccc(F)cn3)n2)CC1` and `CN1CCC(=C(F)c2cccc(NC(=O)c3ccc(F)cc3)n2)CC1` are within 1.5-fold of each other in half-life: 0.924 h for the first, 1.37 h for the second.

Going from `CN1CCC(=C(F)c2cccc(NC(=O)c3ccc(Cl)cc3)n2)CC1` to `CN1CCC(C(=O)c2cccc(NC(=O)c3c(F)cc(F)cc3F)n2)CC1` [LASMIDITAN], the half-life rises from 1.6 h to 3.12 h (1.9-fold).

Tested on: not listed separately
Test: AUC(0 to t) in Sprague-Dawley rat at 1 mg/kg, iv measured for 24 hrs by LC-MS/MS analysis
Format: ADME, organism-based
Design: time 24 hrs, dose 1 mg/kg
Conditions: in vivo

`CN1CCC(=C(F)c2cccc(NC(=O)c3ccc(Cl)cc3F)n2)CC1` and `CN1CCC(=C(F)c2cccc(NC(=O)c3ccc(F)cc3F)n2)CC1` are within 1.5-fold of each other in AUC(0-t) at 24 h: 90.5 ng·h/mL for the first, 70.4 ng·h/mL for the second.

`CN1CCC(=C(F)c2cccc(NC(=O)c3ccc(F)cn3)n2)CC1` and `CN1CCC(=C(F)c2cccc(NC(=O)c3ccc(F)cc3)n2)CC1` are within 1.5-fold of each other in AUC(0-t) at 24 h: 103 ng·h/mL for the first, 104 ng·h/mL for the second.

`CN1CCC(=C(F)c2cccc(NC(=O)c3ccc(Cl)cc3)n2)CC1` and `CN1CCC(C(=O)c2cccc(NC(=O)c3c(F)cc(F)cc3F)n2)CC1` [LASMIDITAN] are within 1.5-fold of each other in AUC(0-t) at 24 h: 89.4 ng·h/mL for the first, 105 ng·h/mL for the second.

Tested on: not listed separately
Test: Cmax in Sprague-Dawley rat at 5 mg/kg, ig measured for 24 hrs by LC-MS/MS analysis
Format: ADME, organism-based
Design: route intragastric, time 24 hrs, dose 5 mg/kg
Conditions: in vivo, po

Compared with `CN1CCC(=C(F)c2cccc(NC(=O)c3ccc(Cl)cc3F)n2)CC1`, `CN1CCC(=C(F)c2cccc(NC(=O)c3ccc(F)cc3F)n2)CC1` is 2.4-fold lower in Cmax: 23.2 ng/mL for the first, 9.71 ng/mL for the second.

`CN1CCC(=C(F)c2cccc(NC(=O)c3ccc(F)cn3)n2)CC1` and `CN1CCC(=C(F)c2cccc(NC(=O)c3ccc(F)cc3)n2)CC1` are within 1.5-fold of each other in Cmax: 34.7 ng/mL for the first, 34.1 ng/mL for the second.

Compared with `CN1CCC(=C(F)c2cccc(NC(=O)c3ccc(Cl)cc3)n2)CC1`, `CN1CCC(C(=O)c2cccc(NC(=O)c3c(F)cc(F)cc3F)n2)CC1` [LASMIDITAN] is 2.5-fold higher in Cmax: 35.7 ng/mL for the first, 90.9 ng/mL for the second.

Tested on: Rattus norvegicus
Test: Antimigraine activity against electrical stimulation of trigeminal ganglion migraine Wistar rat model assessed as reduction in c-Fos-positive cells at 10 ug/kg, po measured after 60 mins by confocal fluorescence microscopic analysis
Format: functional, organism-based
Conditions: dose 10.0 µg/kg

In the case of `CN1CCC(C(=O)c2cccc(NC(=O)c3c(F)cc(F)cc3F)n2)CC1` [LASMIDITAN], the Activity is reported as “Active”.

Tested on: not listed separately
Test: Toxicity in NewZealand rabbit Saphenous vein rings assessed as induction of vasoconstriction at 1 to 100 uM
Format: tissue-based, Oryctolagus cuniculus
Conditions: dose 1-100 µM

For `CNS(=O)(=O)Cc1ccc2[nH]cc(CCN(C)C)c2c1` [SUMATRIPTAN], the Activity was “Toxic”.

Tested on: not listed separately
Test: Cmax in Sprague-Dawley rat at 1 mg/kg, iv measured for 24 hrs by LC-MS/MS analysis
Format: ADME, organism-based
Design: route intravenous, dose 1 mg/kg, time 24 hrs
Conditions: in vivo

`CN1CCC(=C(F)c2cccc(NC(=O)c3ccc(Cl)cc3F)n2)CC1` and `CN1CCC(=C(F)c2cccc(NC(=O)c3ccc(F)cc3F)n2)CC1` are within 1.5-fold of each other in Cmax: 72.2 ng/mL for the first, 74.4 ng/mL for the second.

`CN1CCC(=C(F)c2cccc(NC(=O)c3ccc(F)cn3)n2)CC1` and `CN1CCC(=C(F)c2cccc(NC(=O)c3ccc(F)cc3)n2)CC1` are within 1.5-fold of each other in Cmax: 94.9 ng/mL for the first, 75.3 ng/mL for the second.

Going from `CN1CCC(=C(F)c2cccc(NC(=O)c3ccc(Cl)cc3)n2)CC1` to `CN1CCC(C(=O)c2cccc(NC(=O)c3c(F)cc(F)cc3F)n2)CC1` [LASMIDITAN], the Cmax falls from 61 ng/mL to 28.1 ng/mL (2.2-fold).
